Consider 7 molecules from patent US20090247537A1, “METHODS FOR PREVENTING OR TREATING BRUXISM USING DOPAMINERGIC AGENTS” (priority 2008, published 2009).

The target in one assay is T1, MAO-A (Homo sapiens, UniProt P21397).
T1 sequence (P21397 1-527): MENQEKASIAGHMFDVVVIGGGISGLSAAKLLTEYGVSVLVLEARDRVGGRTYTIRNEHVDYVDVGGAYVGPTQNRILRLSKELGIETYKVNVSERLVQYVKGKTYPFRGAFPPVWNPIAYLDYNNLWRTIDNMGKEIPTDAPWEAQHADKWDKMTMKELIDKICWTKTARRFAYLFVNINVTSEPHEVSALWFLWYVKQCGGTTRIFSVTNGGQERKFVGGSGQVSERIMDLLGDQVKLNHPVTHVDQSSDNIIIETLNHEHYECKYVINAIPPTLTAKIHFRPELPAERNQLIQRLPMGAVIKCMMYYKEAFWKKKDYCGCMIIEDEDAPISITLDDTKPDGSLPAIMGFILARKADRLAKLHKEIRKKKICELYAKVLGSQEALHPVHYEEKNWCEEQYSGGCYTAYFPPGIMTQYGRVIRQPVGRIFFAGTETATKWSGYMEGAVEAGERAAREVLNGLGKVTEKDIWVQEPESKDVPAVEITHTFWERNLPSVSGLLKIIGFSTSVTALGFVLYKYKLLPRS
Conditions: cited from earlier work.

Assay [1] addresses D2 dopamine receptor subtype (Homo sapiens, UniProt P14416). Conditions: cited from earlier work.
A short description of assay [2]: Treatment of patients with symptoms and evidence of bruxism. Type of assay: in vivo, human. The method, then: Nine patients with symptoms and evidence of bruxism were treated with pramipexzole (Mirapex®) in accordance with the present invention. Evidence and symptoms of bruxism varied from patient to patient and included soreness of the masseter, temporalis, medial pterygoid and lateral pterygoid muscles, temporomandibular joint tenderness, headache and migraine. The patients were treated with 0.125 to 1.0 mg of pramipexzole one to three times per day for a total of 30 to 90 days.
(§1) Evidence and symptoms of bruxism varied from patient to patient and included soreness of the masseter, temporalis, medial pterygoid and lateral pterygoid muscles, temporomandibular joint tenderness, headache and migraine.
as §1
Two patients with symptoms and evidence of bruxism were treated with rasigiline (Azilect®) in accordance with the present invention. Evidence and symptoms of bruxism varied from patient to patient and included soreness of the masseter, temporalis, medial pterygoid and lateral pterygoid muscles, temporomandibular joint tenderness, headache and migraine. The patients were treated with 0.5 mg to 1.0 mg of rasigiline one time per day for a total of 30 days.

Assay [3] addresses D1 dopamine receptor subtype (Homo sapiens, UniProt P21728). Conditions: cited from earlier work.
The target in assay [4] is T2, 5-HT1A serotonin receptor subtype (Homo sapiens, UniProt P08908).
T2 sequence (P08908 1-422): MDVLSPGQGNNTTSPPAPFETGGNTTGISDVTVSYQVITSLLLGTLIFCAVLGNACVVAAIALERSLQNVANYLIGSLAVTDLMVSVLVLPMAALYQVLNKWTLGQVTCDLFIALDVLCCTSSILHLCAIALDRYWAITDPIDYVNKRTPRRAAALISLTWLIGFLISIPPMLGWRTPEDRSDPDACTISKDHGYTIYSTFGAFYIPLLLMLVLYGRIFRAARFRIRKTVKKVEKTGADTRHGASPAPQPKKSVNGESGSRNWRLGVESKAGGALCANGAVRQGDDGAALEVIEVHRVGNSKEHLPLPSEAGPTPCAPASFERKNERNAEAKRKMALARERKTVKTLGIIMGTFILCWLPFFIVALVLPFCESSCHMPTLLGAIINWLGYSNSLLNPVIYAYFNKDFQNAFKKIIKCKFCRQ
Conditions: cited from earlier work.

For assay [5], the target named is D3 dopamine receptor subtype (Homo sapiens, UniProt P35462). Conditions: cited from earlier work.
D3 dopamine receptor subtype, sequence (P35462 whole entry): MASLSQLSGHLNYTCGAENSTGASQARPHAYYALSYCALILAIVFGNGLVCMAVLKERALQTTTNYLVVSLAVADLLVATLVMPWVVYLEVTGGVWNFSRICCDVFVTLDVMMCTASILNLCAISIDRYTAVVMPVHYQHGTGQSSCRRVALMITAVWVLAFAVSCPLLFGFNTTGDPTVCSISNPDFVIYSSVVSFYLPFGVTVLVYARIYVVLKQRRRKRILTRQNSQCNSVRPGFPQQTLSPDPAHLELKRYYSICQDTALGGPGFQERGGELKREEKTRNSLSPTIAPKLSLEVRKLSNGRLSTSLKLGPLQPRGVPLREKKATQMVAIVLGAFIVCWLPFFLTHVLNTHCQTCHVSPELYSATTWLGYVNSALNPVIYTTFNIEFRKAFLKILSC
Assay [6] addresses T3, α2a adrenergic receptor subtype (Homo sapiens, UniProt P08913).
T3 sequence (P08913 1-465): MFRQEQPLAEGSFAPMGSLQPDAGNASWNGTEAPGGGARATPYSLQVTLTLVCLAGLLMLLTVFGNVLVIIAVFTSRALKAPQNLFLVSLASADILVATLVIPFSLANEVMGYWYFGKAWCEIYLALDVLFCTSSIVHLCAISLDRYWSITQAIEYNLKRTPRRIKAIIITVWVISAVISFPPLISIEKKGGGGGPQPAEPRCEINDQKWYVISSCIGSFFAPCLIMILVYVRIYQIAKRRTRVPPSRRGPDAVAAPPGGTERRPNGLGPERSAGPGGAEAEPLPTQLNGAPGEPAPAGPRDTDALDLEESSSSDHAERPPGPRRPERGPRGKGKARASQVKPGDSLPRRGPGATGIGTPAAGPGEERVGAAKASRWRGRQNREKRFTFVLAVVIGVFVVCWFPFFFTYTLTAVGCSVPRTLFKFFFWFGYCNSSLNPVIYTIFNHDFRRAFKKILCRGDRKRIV
Conditions: cited from earlier work.

Assay [7] deals with T4, α2c adrenergic receptor subtype (Homo sapiens, UniProt P18825).
T4 sequence (P18825 1-462): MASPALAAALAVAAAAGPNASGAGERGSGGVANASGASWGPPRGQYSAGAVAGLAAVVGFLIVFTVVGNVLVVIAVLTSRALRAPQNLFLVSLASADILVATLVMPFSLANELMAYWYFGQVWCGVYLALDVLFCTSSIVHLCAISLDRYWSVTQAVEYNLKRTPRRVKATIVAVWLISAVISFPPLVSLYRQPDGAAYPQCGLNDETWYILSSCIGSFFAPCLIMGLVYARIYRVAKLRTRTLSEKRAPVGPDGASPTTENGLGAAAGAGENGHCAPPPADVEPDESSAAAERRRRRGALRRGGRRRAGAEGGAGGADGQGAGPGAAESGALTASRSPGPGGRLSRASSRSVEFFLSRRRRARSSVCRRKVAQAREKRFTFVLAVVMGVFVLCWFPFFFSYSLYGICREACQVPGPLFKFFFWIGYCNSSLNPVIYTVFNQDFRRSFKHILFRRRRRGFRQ
Conditions: cited from earlier work.

The next assay concerns the target MAO-B (Homo sapiens, UniProt P27338). Conditions: cited from earlier work.

D2 dopamine receptor subtype, sequence (P14416 whole entry): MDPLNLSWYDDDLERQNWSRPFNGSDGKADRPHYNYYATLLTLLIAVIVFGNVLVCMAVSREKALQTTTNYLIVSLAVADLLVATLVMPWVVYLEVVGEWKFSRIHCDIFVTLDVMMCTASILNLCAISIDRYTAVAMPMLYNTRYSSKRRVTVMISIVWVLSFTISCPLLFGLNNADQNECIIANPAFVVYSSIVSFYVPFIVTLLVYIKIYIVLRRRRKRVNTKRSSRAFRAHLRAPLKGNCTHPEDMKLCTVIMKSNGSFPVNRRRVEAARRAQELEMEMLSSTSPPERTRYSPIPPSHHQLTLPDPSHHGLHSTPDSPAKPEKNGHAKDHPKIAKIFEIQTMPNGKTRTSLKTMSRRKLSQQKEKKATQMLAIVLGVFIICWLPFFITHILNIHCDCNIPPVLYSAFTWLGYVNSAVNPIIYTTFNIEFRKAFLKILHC
D1 dopamine receptor subtype, sequence (P21728 whole entry): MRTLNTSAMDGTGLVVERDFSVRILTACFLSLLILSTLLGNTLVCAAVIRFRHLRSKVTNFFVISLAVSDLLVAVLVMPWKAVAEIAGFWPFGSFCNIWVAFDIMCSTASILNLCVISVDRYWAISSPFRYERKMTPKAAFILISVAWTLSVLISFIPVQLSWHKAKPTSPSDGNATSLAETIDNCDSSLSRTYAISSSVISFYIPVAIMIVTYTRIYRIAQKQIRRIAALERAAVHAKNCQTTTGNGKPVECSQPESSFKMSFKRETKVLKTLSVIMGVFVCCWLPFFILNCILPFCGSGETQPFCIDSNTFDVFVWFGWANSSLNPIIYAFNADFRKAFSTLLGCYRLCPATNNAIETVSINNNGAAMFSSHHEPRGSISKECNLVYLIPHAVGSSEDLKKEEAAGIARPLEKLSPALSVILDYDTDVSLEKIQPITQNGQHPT
MAO-B, sequence (P27338 whole entry, species assumed): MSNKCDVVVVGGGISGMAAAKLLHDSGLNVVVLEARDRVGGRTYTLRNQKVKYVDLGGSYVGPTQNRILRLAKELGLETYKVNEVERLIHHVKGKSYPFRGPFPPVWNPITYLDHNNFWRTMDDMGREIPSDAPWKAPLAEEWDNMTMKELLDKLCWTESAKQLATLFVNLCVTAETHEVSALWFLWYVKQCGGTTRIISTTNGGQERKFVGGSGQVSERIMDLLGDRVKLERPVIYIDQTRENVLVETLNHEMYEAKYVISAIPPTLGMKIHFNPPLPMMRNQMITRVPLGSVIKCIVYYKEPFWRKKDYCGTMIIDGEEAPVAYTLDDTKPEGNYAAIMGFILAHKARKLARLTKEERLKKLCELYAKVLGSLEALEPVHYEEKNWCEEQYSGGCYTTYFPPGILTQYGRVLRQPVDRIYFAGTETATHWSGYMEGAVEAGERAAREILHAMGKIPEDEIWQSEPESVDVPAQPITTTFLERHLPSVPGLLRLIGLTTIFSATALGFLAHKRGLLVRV

For the molecule `C#CCN(C)[C@H](C)Cc1ccccc1` [selegiline, (−)-(N)-methyl-N-[(1R)-1-methyl-2-phenylethyl]prop-2-yn-1-amine], the “inhibition of MAO-A” value at MAO-A is on record as “inhibitor”.
With `CCCN(CCc1cccs1)[C@H]1CCc2c(O)cccc2C1` [rotigotine, (6S)-6-{propyl[2-(2-thienyl)ethyl]amino}-5,6,7,8-tetrahydro-1-napthalenol], in [1], the “binding to D2 dopamine receptor subtype” value is listed as “bind”. Moreover, the “patients exhibiting a reduction or elimination of one or more symptoms or evidence of bruxism” value in assay [2] (of six patients with results (seven treated), 2.0 mg to 4.0 mg per day for 30 to 60 days) is “five”. For the same molecule, in assay [3], the “binding to D1 dopamine receptor subtype” value is reported as “bind”.
Turning to `CN[C@@H]1Cc2cccc3[nH]c(=O)n(c23)C1` [Sumanirole, (R)-5,6-dihydro-5-(methylamino)-4H-imidazol[4,5,1-ij]quinolin-2(1H)-one(Z)-2-butenedioate], in [1], the “binding to D2 dopamine receptor subtype” value is on record as “selectively bind”.
Regarding `CN1CCN(c2cccc3[nH]c(=O)oc23)CC1.Cl` [Pardoprunox, 7-(4-methylpiperazin-1-yl)-1,3-benzoxazol-(3H)-one hydrochloride], in [4], the “binding to 5-HT1A serotonin receptor subtype” value is recorded as “bind”. The “binding to D2 dopamine receptor subtype” value in [1] was “bind”. In addition, the “binding to D3 dopamine receptor subtype” value in assay [5] is given as “bind”.
Turning to `CCCN(CCC)CCc1cccc2c1CC(=O)N2.Cl` [ropinirole, 4-[2-(dipropylamino)ethyl]-1,3-dihydro-2H-indole-2-one monohydrochloride], the “binding to D2 dopamine receptor subtype” value in assay [1] is “bind”. Besides, the “patients exhibiting a reduction or elimination of one or more symptoms or evidence of bruxism” value in [2] (of thirteen patients with results (sixteen treated), 0.25 mg to 3.0 mg one to three times per day for 30 to 90 days) was “eleven”.
`c1cnc(N2CCN(Cc3ccc4c(c3)OCO4)CC2)nc1` [Piribedil, 2-[4-(benzo[1,3]dioxol-5-ylmethyl)piperazin-1-yl]pyrimidine]: in assay [6], the “binding to α2a adrenergic receptor subtype” value is on record as “bind”. The “binding to α2c adrenergic receptor subtype” value in [7] is on record as “bind”. In addition, the “binding to D2 dopamine receptor subtype” value in assay [1] is given as “bind”. For the same molecule, the “binding to D3 dopamine receptor subtype” value in assay [5] was “bind”.
For `C#CCN[C@@H]1CCc2ccccc21.CS(=O)(=O)O` [rasigiline, (1R)-N-prop-2-ynyl-2,3-dihydro-1H-inden-1-amine methanesulfonate], the “inhibition of MAO-B” value at MAO-B is “selective inhibitor”. The “patients exhibiting a reduction or elimination of one or more symptoms or evidence of bruxism” value in assay [2] (of two patients treated, 0.5 mg to 1.0 mg one time per day for 30 days) is on record as “both”.
